Source: US10669242B2 (priority 2016, dated 2020)
pIC50: −log10 of the molar value.

Key:
[1] = target: T1, recombinant glucosyltransferase domain of C. difficile Toxin B/TcdB (Clostridioides difficile, UniProt P18177); test: biochemical
T1 construct: 6-His (C); purchased R&D Systems 6246-GT

[2] = target: T2, C. difficile full-length toxin TcdA (Clostridioides difficile, UniProt P16154); test: cell-based
T2 construct: C. difficile full-length toxins (TcdA or TcdB); purchased Enzo Life Sciences BML-G140-0050

[3] = target: T3, C. difficile full-length toxin TcdB (Clostridioides difficile, UniProt P18177); test: cell-based
T3 construct: C. difficile full-length toxins (TcdA or TcdB); purchased EMD Millipore 616377

[4] = system: C. difficile toxin (TcdA and TcdB, ~1:1); test: Murine C. difficile toxin model (intrarectal toxin); type: in vivo, C57BL/6 mice; conditions: for IL-1β (% Inhibition) / MPO (% Inhibition): murine C. difficile toxin model, PO, 50 mg/kg body weight; for IL-1β in colon tissue / MPO in colon tissue / toxin effect on colon length: oral (PO), 50 mg/kg, intrarectal toxin 12.5 μg
Procedure: In the following studies, we established a murine C. difficile toxin model with modifications from a published murine model (Hirota, Iablokov et al. 2012). Details of the murine C. difficile toxin model are described in the “Experimental Protocols” (below). C. difficile toxins were isolated from a culture of the C. difficile strain VPI 10463. C. difficile toxins consisted of TcdA and TcdB (˜1:1 ratio of TcdA:TcdB). Respective TcdA and TcdB concentrations were determined by enzyme-linked immunosorbant assay (ELISA). In our mouse model, C. difficile toxins were administered intrarectally to evaluate their pathological effects.
We administered C. difficile toxin (12.5 μg/mouse) via intrarectal instillation into female C57BL/6 mice. Four (4) animals were used in each group. Four (4) hours after the toxin administration, the mice were euthanized. The colons were excised from the animals and washed with phosphate buffered saline (PBS). The colon lengths were measured. Excised colon tissues were stored at −70° C. for chemical analysis of interleukin-1β(IL-1β) and myeloperosidase (MPO) in tissues, which are the hallmarks of colon inflammation. Excised colon tissues were also stored at room temperature in 10% neutral buffered formalin for histopathological analysis.
Using the murine C. difficile toxin model (Example 61), we evaluated the efficacy of Example 6a in reducing the C. difficile toxin activity. In this study, the isolated toxin (12.5 μg) was diluted in 50 μl of PBS and mixed with a 50 μl suspension of Example 6a (10 mg/mL) in 1% carboxymethyl cellulose and 0.5% Tween 80 to achieve a fixed dose of […] of Example 6a (0.5 mg in mice weighing ˜20 g) and C. difficile toxin (12.5 μg). Three (3) animals were used in each group.
In this study, we evaluated the efficacy of Example 6a via different routes of administration (i.e., oral (PO) and intraperitoneal (IP) administrations) in the same murine C. difficile toxin model (Example 61). In both PO and IP dosages, Example 6a was prepared as 5 mg/mL solutions in 20% PEG-400, 0.4% carboxymethyl cellulose and 0.2% Tween 80. Example 6a was administered at a final dose of 50 mg/kg body weight. Three (3) mice were used in each group (i.e., vehicle (control), PO and IP).
Using the murine C. difficile toxin model (Example 63), we further tested the efficacy of four (4) additional compounds (i.e., Example 6a, Example 5ae, Example 4cl, and Example 5al) via PO administration. All of the compounds were dosed orally at 50 mg/kg body weight. In three separate studies a total of three (3) to fourteen (14) mice were used in each group.
We evaluated the efficacy of additional compounds in reducing C. difficile toxicity. Using the PO administration (Example 63), we further tested 30 compounds (Table 34). All of the compounds were dosed orally at 50 mg/kg body weight. Three (3) to fourteen (14) animals were used for each compound. % inhibition was determined by the following formula: […]
An overnight culture of C. difficile strain VPI 10463 (American Type Culture Collection) was grown at 37° C. in Brain-Heart Infusion (BHI) broth using the GasPak EZ Anaerobe Pouch System (Becton Dickinson). 2 mL of the culture was added to 28 mL of phosphate buffered saline (PBS) in a gamma-irradiated, 10,000 molecular weight cut-off, 30-70 ml Slide-A-Lyzer G2 dialysis cassette (Pierce). This cassette was submerged in 1 L of BHI broth in a 2 L beaker and incubated under anaerobic conditions for 5 days at 37° C. The culture was then transferred to a 50 mL conical tube and the cassette was washed with 10 mL of PBS. The combined culture and wash were centrifuged at 2,000 g for 20 minutes to pellet the bacteria and the supernatant was filtered through a 0.2 μm syringe filter. The filtrate was then applied to a 20 mL 150 K molecular weight cut-off concentration column (Pierce) and centrifuged at 2,000 g for 15 minutes. Concentrated supernatant was stored at 4° C. […]

[5] = system: C. difficile strain VPI 10463; test: Acute murine C. difficile infection model; type: in vivo, C57BL/6 mice; conditions: PO; 52 hours after infection
Excerpt: In a hospital environment, C. difficile infection occurs when the patient receives an antibiotic treatment that disrupts the normal gut microflora and is exposed to C. difficile spores. The patient often fails to mount a protective immune response against the acute C. difficile infection. (Rupnik, Wilcox et al. 2009). To study the acute C. difficile infection, we established a murine C. difficile infection model. Details of the infection model are provided in the “Experimental Protocol” (below).
In brief, female C57BL/6 mice were administered the following antibiotics: colistin (0.042 units/mL), gentamicin (0.035 mg/mL), kanamycin (0.4 mg/mL), metronidazole (0.215 mg/mL) and vancomycin (0.045 mg/mL) in drinking water for 3 days. The administered antibiotics disrupted the normal gut microflora in mice. On the 4th day, mice received oral administration of 0.5 mL volume containing ˜100 spores produced from a virulent clinical C. difficile isolate (strain VPI 10463). In this acute murine C. difficile infection model, we observed a similar time course of infection when compared to that of clinical patients.
Using the developed murine C. difficile infection model (Example 67), we evaluated our test compounds for their efficacy in reducing weight loss and gut inflammation caused by the acute C. difficile infection. We tested the efficacy of Example 6a and Example 5ae and used eight (8) animals in each group.
We further tested the efficacy of the Example 6a, Example 5ae, Example 4cl, and Example 5al compounds by PO administration. Vancomycin was used as a positive control. Three (3) experiments were performed utilizing a total of five (5) to sixteen (16) animals in each group.
C. difficile strain VPI 10463 was grown for four (4) days in 10 ml of BHI in a Bactron anaerobic workstation (Shel Lab). The culture was centrifuged at 2,700 g for 10 minutes. The bacterial pellet was washed with 10 mL of PBS and the centrifugation was repeated. The pellet was then re-suspended in 10 mL of PBS, incubated at 56° C. for 10 minutes, and then was frozen at −20° C. until used. Titers of spore stocks were determined by serial dilution and plating onto BHI and with 1% taurocholate and counting of colonies after incubation for 24 hours at 37° C. using the GasPak EZ Anaerobe Pouch System.
We utilized an established C. difficile murine infection model (Chen, Katchar et al. 2008). To render them susceptible to infection, female C57BL/6 mice (˜10 weeks old and weighing ˜20 g) were administered the following antibiotics (Sigma Aldrich) in drinking water for 3 days (Days −6 to −3): colistin (0.042 units/mL), gentamicin (0.035 mg/mL), kanamycin (0.4 mg/mL), metronidazole (0.215 mg/mL) and vancomycin (0.045 mg/mL). Based upon an expected water consumption of 100 mL/kg/day, the approximate doses of these antibiotics will be as follows: colistin (4.2 units/kg/day), gentamicin (3.5 mg/kg/day), kanamycin (40 mg/kg/day), metronidazole (21.5 mg/kg/day) and vancomycin (4.5 mg/kg/day). The animals were provided with regular drinking water for two days (Day −2 and Day −1), and the next day (Day 0) they were administered clindamycin phosphate (1 mg/mL solution in PBS) at 10 mL/kg by intraperitoneal injection, for a final dose of 10 mg/kg body weight. The following day (Day 1), they were orally gavaged with ˜100 spores in a 0.5 ml volume.
Compounds were administered beginning ˜8 hours after infection, and the animals were dosed twice per day for two days (Days 2-3) with a total of four doses. Compounds were prepared as 5 mg/mL suspensions in 20% PEG-400, 0.4% carboxymethyl cellulose and 0.2% Tween 80 and administered at a dose of 10 mL/kg, for a final dose of 50 mg/kg body weight.
Animals were observed and weighed two (2) to (3) times daily. Animals that were obviously moribund or had lost >20% of their initial body weight were euthanized. Sub-groups of animals were euthanized four (4) hours after the final compound dose (52 hours after infection). […]

[6] = system: C. difficile infection (CDI); conditions: patients; Louie et al. 2011; cited from earlier work
C. difficile = type: in vivo, C57/BL6 mice
C. difficile strain 630 = type: in vivo, Golden Syrian hamsters; conditions: PO twice per day; Example 5ae 50 mg/kg 7 days; vancomycin 5 mg/kg 5 days

T2 sequence (P16154 whole entry, looked up): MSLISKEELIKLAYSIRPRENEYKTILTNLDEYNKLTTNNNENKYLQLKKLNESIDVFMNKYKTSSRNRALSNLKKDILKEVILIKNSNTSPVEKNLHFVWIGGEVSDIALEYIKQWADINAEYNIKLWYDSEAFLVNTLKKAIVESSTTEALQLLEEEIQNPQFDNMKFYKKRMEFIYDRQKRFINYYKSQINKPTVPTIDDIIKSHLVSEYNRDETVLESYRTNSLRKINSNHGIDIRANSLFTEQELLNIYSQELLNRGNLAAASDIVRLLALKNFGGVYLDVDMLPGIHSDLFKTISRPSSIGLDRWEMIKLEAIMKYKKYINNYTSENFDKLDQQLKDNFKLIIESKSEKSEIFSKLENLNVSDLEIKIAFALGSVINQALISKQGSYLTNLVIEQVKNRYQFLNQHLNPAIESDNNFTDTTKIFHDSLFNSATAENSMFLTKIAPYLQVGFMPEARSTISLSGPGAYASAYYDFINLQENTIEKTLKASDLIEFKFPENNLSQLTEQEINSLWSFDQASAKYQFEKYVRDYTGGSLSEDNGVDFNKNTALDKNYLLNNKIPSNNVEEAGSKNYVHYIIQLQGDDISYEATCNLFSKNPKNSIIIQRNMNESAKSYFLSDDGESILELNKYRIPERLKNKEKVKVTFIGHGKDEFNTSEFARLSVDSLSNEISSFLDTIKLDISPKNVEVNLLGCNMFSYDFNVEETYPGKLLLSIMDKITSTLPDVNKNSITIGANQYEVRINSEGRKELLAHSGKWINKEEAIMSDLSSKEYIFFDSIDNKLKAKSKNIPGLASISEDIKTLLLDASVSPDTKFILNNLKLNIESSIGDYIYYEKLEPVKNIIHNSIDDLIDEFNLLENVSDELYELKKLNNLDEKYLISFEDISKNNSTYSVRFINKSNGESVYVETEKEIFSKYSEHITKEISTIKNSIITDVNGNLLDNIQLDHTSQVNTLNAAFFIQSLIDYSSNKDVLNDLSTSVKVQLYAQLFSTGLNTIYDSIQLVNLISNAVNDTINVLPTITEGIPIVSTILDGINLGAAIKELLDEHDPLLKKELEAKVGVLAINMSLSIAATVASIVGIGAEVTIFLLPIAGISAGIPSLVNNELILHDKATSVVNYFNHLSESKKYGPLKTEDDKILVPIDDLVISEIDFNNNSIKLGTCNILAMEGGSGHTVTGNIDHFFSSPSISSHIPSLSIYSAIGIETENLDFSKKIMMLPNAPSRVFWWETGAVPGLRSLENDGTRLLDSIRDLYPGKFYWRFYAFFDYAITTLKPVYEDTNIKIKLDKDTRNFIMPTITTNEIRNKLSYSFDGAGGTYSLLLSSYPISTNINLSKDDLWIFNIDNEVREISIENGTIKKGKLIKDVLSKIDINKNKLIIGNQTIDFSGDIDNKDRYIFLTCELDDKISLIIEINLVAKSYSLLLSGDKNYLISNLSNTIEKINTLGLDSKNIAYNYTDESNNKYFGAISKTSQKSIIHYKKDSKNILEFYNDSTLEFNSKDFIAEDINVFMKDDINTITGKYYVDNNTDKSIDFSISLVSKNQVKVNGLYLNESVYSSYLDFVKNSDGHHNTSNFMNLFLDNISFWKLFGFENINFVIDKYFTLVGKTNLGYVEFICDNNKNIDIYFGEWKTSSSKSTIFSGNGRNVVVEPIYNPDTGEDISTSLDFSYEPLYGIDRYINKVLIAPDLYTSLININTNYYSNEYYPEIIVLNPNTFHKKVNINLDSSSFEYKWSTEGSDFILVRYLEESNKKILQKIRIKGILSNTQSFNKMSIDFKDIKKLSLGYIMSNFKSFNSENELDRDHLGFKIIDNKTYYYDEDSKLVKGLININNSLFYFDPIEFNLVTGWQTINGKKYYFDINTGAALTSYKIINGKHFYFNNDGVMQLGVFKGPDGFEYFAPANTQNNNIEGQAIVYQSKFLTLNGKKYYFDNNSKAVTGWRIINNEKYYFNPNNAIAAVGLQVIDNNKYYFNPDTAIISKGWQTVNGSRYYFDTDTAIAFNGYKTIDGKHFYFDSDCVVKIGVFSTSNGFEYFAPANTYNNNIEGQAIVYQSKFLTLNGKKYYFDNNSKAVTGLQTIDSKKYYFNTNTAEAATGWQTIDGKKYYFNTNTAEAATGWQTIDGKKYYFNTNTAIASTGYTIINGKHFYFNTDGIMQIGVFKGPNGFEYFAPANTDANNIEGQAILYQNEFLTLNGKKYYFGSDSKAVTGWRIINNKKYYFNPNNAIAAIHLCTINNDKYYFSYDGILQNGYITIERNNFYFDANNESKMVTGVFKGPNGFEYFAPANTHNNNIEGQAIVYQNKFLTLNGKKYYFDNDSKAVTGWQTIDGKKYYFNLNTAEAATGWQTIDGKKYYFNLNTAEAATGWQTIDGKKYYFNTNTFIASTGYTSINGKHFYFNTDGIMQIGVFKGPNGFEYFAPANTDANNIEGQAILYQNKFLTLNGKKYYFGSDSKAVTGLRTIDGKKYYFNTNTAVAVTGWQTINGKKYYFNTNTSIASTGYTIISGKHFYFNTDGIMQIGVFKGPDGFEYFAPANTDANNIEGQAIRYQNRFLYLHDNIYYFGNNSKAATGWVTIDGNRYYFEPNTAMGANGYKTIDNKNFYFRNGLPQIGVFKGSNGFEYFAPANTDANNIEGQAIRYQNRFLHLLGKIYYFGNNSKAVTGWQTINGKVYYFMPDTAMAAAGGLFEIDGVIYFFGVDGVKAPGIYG
T3 sequence (P18177 2-2366 limits assumed): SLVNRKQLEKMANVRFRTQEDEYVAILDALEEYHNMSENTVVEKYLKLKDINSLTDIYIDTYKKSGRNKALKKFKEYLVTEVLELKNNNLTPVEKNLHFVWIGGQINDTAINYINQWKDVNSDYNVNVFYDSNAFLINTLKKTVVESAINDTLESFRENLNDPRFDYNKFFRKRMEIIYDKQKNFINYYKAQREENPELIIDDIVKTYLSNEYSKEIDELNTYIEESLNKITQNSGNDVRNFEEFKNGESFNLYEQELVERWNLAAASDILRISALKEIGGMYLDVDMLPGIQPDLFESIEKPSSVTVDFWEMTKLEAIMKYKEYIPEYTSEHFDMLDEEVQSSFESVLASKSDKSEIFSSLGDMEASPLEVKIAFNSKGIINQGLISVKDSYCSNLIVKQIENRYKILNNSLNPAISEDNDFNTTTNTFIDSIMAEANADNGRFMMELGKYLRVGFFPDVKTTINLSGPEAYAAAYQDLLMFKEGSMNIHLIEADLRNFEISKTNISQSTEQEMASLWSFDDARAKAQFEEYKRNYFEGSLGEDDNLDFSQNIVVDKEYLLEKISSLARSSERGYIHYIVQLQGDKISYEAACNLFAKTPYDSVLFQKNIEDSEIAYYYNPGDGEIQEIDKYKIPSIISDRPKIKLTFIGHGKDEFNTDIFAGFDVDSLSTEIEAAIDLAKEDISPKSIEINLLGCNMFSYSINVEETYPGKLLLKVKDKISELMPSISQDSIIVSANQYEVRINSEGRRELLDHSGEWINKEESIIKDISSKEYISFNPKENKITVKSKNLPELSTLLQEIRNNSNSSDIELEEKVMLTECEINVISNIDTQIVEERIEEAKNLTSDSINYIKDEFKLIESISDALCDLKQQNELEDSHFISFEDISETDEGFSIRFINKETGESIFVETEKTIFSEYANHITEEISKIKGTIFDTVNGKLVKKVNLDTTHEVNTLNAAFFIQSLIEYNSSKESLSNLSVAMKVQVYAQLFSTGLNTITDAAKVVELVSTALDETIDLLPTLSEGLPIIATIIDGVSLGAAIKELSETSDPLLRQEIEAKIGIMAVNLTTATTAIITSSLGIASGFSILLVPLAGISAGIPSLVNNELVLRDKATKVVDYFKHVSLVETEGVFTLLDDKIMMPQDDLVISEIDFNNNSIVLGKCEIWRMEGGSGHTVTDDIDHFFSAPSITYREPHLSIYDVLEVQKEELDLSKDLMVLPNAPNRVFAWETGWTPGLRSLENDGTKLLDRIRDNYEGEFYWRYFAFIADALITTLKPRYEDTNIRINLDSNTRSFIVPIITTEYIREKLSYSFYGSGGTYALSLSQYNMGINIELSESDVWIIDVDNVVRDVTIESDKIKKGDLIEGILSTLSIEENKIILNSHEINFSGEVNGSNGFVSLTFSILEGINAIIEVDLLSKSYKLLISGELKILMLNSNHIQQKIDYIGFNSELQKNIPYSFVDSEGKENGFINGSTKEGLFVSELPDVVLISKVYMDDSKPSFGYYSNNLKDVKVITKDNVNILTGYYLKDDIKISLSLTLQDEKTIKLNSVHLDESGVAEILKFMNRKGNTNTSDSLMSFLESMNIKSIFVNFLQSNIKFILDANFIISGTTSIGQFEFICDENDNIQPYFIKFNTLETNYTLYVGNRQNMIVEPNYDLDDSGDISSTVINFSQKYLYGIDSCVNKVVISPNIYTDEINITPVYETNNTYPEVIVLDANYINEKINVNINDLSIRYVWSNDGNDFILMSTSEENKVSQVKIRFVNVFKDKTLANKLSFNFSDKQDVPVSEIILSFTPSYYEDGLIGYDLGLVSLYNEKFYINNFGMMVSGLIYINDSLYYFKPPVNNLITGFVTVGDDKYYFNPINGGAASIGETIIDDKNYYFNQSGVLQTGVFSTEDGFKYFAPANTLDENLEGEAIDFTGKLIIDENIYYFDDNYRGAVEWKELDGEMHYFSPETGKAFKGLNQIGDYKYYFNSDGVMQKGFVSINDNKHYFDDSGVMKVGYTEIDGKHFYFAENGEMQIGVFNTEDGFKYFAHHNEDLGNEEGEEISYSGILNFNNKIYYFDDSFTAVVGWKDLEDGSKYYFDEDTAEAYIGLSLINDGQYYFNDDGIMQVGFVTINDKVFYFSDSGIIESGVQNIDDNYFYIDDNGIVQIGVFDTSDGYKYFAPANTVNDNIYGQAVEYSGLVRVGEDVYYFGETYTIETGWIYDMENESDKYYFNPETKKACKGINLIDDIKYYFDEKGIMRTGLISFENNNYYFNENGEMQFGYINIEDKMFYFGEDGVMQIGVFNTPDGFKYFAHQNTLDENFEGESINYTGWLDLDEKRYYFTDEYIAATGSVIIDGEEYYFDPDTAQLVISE

SMILES | pIC50 [1] | pIC50 [2] | pIC50 [3] | IL-1β (% Inhibition) [4] | MPO (% Inhibition) [4] | IL-1β in colon tissue [4] | MPO in colon tissue [4] | toxin effect on colon length [4] | toxin effect on colon length [5] | CDI recurrence [6] | weight loss, days 8-9 after infection (C. difficile; relapse model, PO, vancomycin 20 mg/kg once per day for five days) | weight loss during treatment (Days 1-5) (C. difficile; vancomycin 20 mg/kg oral, once per day for five days) | body weight loss (C. difficile strain 630) | IL-1β in colon tissues [5] | MPO in colon tissues [5]
COc1ccc(NC(=O)c2ccc(CN3C(=O)c4ccc(Cl)cc4NC(=O)[C@H]3Cc3ccccn3)cc2C)nc1 [Example 4cl, (R)-4-((8-Chloro-2,5-dioxo-3-(pyridin-2-ylmethyl)-2,3-dihydro-1H-benzo[e][1,4]diazepin-4(5H)-yl)methyl)-N-(5-methoxypyridin-2-yl)-2-methylbenzamide] | > 7.00 | 6.00 to 7.00 | > 7.00 | 100% | 100% | reduced the levels of IL-1β | reduced | reduced the C. difficile toxin-mediated effects on colon length | significantly reduced the toxin effect on colon length |  |  |  |  |  | 
CCc1c(Cl)c(O)c(Cl)c(O)c1C(=O)O[C@H]1[C@H](O)[C@H](OC)[C@H](OC/C2=C\C=C\C[C@H](O)/C(C)=C/[C@H](CC)[C@@H](O[C@@H]3OC(C)(C)[C@@H](OC(=O)C(C)C)[C@H](O)[C@@H]3O)/C(C)=C/C(C)=C/C[C@@H]([C@@H](C)O)OC2=O)O[C@@H]1C [fidaxomicin] |  |  |  |  |  |  |  |  |  | 8% |  |  |  |  | 
CN[C@H](CC(C)C)C(=O)N[C@H]1C(=O)N[C@@H](CC(N)=O)C(=O)N[C@H]2C(=O)N[C@H]3C(=O)N[C@H](C(=O)N[C@H](C(=O)O)c4cc(O)cc(O)c4-c4cc3ccc4O)[C@H](O)c3ccc(c(Cl)c3)Oc3cc2cc(c3O[C@@H]2O[C@H](CO)[C@@H](O)[C@H](O)[C@H]2O[C@H]2C[C@](C)(N)[C@H](O)[C@H](C)O2)Oc2ccc(cc2Cl)[C@H]1O [vancomycin, reference compound] |  |  |  |  |  |  |  |  |  | 25% | significant weight loss | prevented weight loss | prevented any significant weight loss |  | 
Cc1cc(CN2C(=O)c3ccc(Cl)cc3NC(=O)[C@H]2Cc2ccccn2)ccc1C(=O)Nc1ccc(C(F)(F)F)cn1 [Example 5al, (R)-4-((8-Chloro-2,5-dioxo-3-(pyridin-2-ylmethyl)-2,3-dihydro-1H-benzo[e][1,4]diazepin-4(5H)-yl)methyl)-2-methyl-N-(5-(trifluoromethyl)pyridin-2-yl)benzamide] | > 7.00 | 5.00 to 6.00 | > 7.00 | 81% | 91% | reduced the levels of IL-1β | reduced | reduced the C. difficile toxin-mediated effects on colon length | significantly reduced the toxin effect on colon length |  |  |  |  | reduced the level of IL-1β | reduced
